# How the values were obtained:
# Assay type in all cases: cell-based, canine
# CIPp cells [1] = assay: Cell cycle distribution, PI staining, flow cytometry; settings: 24 h (0 μM: 12.0%)
# Procedure: (§1) To investigate whether celastrol inhibits the proliferation of canine mammary tumor cells by regulating the cell cycle, we treated canine mammary tumor cells with celastrol for 24 h, then stained cells with PI followed by flow cytometry to detect the percentage of different cell cycle phases. […] Furthermore, we detected the expression of mRNA and protein of cell cycle–related factors by qPCR and Western blotting.
# CMT-7364 cells [2] = assay: as above; settings: 24 h (0 μM: 5.6%)
# Procedure: as §1
# CIPp cells [3] = assay: Cell Counting Kit-8 (CCK-8) cell viability; settings: for IC50: Canis lupus familiaris, CCK-8
# Procedure: (§2) CMT-7364, CIPp, and MDCK cells were plated in a 96-well plate with 2,000 cells per well and maintained in 5% CO2 at 37°C for 24 h until the cells adhered to the bottom. Then the medium was removed, the new media containing different concentrations (0, 0.1, 0.4, 0.6, 0.8, 1.2, and 1.6 μM) of celastrol were added, and incubated for 12, 24, 36, and 48 h. Ten microliters of the cell counting kit-8 (CCK-8) were added to each well for 1 h incubation. At each time point, the OD value was read by a microplate reader at 450 nm wavelength, and the cell viability with each drug concentration at different time points was calculated: cell relative viability=[(OD 450celastrol-OD 450blank) / (OD 450control-OD 450blank)] × 100%.
# CMT-7364 cells [4] = assay: Cell Counting Kit-8 (CCK-8) cell viability; settings: for IC50: Canis lupus familiaris, CCK-8
# Procedure: as §2
# CIPp cells [5] = assay: Annexin V-FITC/PI apoptosis detection, fluorescence microscope; settings: 0.3 μM or 0.9 μM, 24 h, vs control group
# Procedure: (§3) CMT-7364 and CIPp cells were seeded in a 6-well plate at a concentration of 1 × 10^5 cells/well, treated with different concentrations of celastrol (0, 0.3, 0.9 μM) for 24 h. Then cells were double-stained by Annexin V-FITC/PI, incubating at room temperature for 20 min in the dark, followed by observing with a fluorescence microscope. Green fluorescence represents Annexin V-FITC staining positive, and red fluorescence represents PI staining positive. Apoptotic cells were single-stained by green fluorescence, late apoptotic or necrotic cells were double-stained by green and red fluorescence, and normal cells were not stained by fluorescence. Finally, pictures of the cells were taken by a fluorescence microscope.
# CMT-7364 cells [6] = assay: as above; settings: 0.3 μM or 0.9 μM, 24 h, vs control group
# Procedure: as §3
# CIPp cells [7] = assay: qPCR of Caspase-3, Caspase-9, p21, p27 mRNA (2^-ΔΔCt, β-actin reference)
# Procedure: (§4) After CMT-7364 and CIPp cells were treated with or without 0.9 μM celastrol for 24 h, TRIzol was used to isolate the total RNA of the cells. The RNA was then reverse transcribed into cDNA using a reverse transcriptase kit. A 20 μl reaction system was prepared according to the manufacturer's instructions and tested in the Real-Time PCR System (Long Gene Q1000, China). The results were analyzed by the 2^−ΔΔCt method: ΔΔCt = (target gene Ct of the experimental group-internal reference gene Ct of the experimental group)-(target gene Ct of the control group-internal reference gene Ct of the control group), β-actin was the internal reference gene.
# CMT-7364 cells [8] = assay: as above
# Procedure: as §4
# MDCK cells = assay: Cell Counting Kit-8 (CCK-8) cell viability, non-tumor cell line; settings: for IC50: Canis lupus familiaris, MDCK cells (non-tumor canine cell line), CCK-8
# Procedure: as §2
# [9] = CIPp cells, 0.9 μM, 24 h, qPCR, vs control
# [10] = CMT-7364, 0.9 μM celastrol, SYBR
# [11] = CMT-7364 cells, 0.9 μM, 24 h, qPCR, vs control
# [12] = test 1, CMT-7364 cells, 0.9 μM, instrument sheet, CMT-7364 control RQ 1
compound,measurement,setting,value
"CC1=C(O)C(=O)C=C2C1=CC=C1[C@@]2(C)CC[C@@]2(C)[C@@H]3C[C@](C)(C(=O)O)CC[C@]3(C)CC[C@]12C [celastrol, Celastrol]",percentage of cell cycle G2/M phase,CIPp cells [1]; 0.3 μM,21.9%
same,percentage of cell cycle G2/M phase,CIPp cells [1]; 0.9 μM,34.4%
same,percentage of cell cycle G2/M phase,CMT-7364 cells [2]; 0.3 μM,20.3%
same,percentage of cell cycle G2/M phase,CMT-7364 cells [2]; 0.9 μM,32.7%
same,cell viability,"CIPp cells [3]; 0.1-1.6 μM, 12-48 h",decreased the viability of the cells in a dose- and time-dependent manner
same,IC50,CIPp cells [3]; 24 h,1.16 µM
same,IC50,CIPp cells [3]; 48 h,0.968 µM
same,proliferation,CIPp cells [3]; concentration <1.2 μM,significantly inhibited
same,cell viability,"CMT-7364 cells [4]; 0.1-1.6 μM, 12-48 h",decreased the viability of the cells in a dose- and time-dependent manner
same,IC50,CMT-7364 cells [4]; 24 h,1.24 µM
same,IC50,CMT-7364 cells [4]; 48 h,1.01 µM
same,proliferation,CMT-7364 cells [4]; concentration <1.2 μM,significantly inhibited
same,"green fluorescence (Annexin V-FITC, apoptotic cells)",CIPp cells [5],increased
same,"green fluorescence (Annexin V-FITC, apoptotic cells)",CMT-7364 cells [6],increased
same,mRNA expression level of Caspase-3,CIPp cells [7]; [9],significantly up-regulated
same,mRNA expression level of Caspase-9,CIPp cells [7]; [9],significantly up-regulated
same,mRNA expression level of p21,CIPp cells [7]; [9],up-regulated
same,mRNA expression level of p27,CIPp cells [7]; [9],up-regulated
same,"RQ Max, caspase-9","CIPp cells [7]; CIPp, 0.9 μM celastrol, SYBR",2.2
same,"RQ Max, p-21","CIPp cells [7]; CIPp, 0.9 μM celastrol, SYBR",155.13
same,"RQ Max, p-27","CIPp cells [7]; CIPp, 0.9 μM celastrol, SYBR",4.26
same,"RQ Max, β-actin","CIPp cells [7]; CIPp, 0.9 μM celastrol, SYBR",0.51
same,"RQ Min, caspase-9","CIPp cells [7]; CIPp, 0.9 μM celastrol, SYBR",0.78
same,"RQ Min, p-21","CIPp cells [7]; CIPp, 0.9 μM celastrol, SYBR",3.13
same,"RQ Min, p-27","CIPp cells [7]; CIPp, 0.9 μM celastrol, SYBR",1.54
same,"RQ Min, β-actin","CIPp cells [7]; CIPp, 0.9 μM celastrol, SYBR",0.16
same,"RQ, caspase-9","CIPp cells [7]; CIPp, 0.9 μM celastrol, SYBR",1.31
same,"RQ, p-21","CIPp cells [7]; CIPp, 0.9 μM celastrol, SYBR",22.02
same,"RQ, p-27","CIPp cells [7]; CIPp, 0.9 μM celastrol, SYBR",2.56
same,"RQ, β-actin","CIPp cells [7]; CIPp, 0.9 μM celastrol, SYBR",0.29
same,"RQ, caspase-9","CIPp cells [7]; test 1, CIPp cells, 0.9 μM, instrument sheet, calibrator CMT-7364 control RQ 1, CIPp control RQ 0.41",0.44
same,"RQ, caspase-3","CIPp cells [7]; test 1, CIPp cells, 0.9 μM, instrument sheet, calibrator CMT-7364 control RQ 1, CIPp control RQ 0.46",0.42
same,"RQ, p-21","CIPp cells [7]; test 1, CIPp cells, 0.9 μM, instrument sheet, calibrator CMT-7364 control RQ 1, CIPp control RQ 0.49",0.27
same,"RQ, p-27","CIPp cells [7]; test 1, CIPp cells, 0.9 μM, instrument sheet, calibrator CMT-7364 control RQ 1, CIPp control RQ 0.59",0.17
same,"RQ, caspase-9","CIPp cells [7]; test 2, CIPp cells, 0.9 μM, instrument sheet, calibrator CMT-7364 0.9 μM celastrol RQ 1, CIPp control RQ 156.08",8.49
same,"RQ, p-21","CIPp cells [7]; test 2, CIPp cells, 0.9 μM, instrument sheet, calibrator CMT-7364 0.9 μM celastrol RQ 1, CIPp control RQ 156.97",12.17
same,"RQ, p-27","CIPp cells [7]; test 2, CIPp cells, 0.9 μM, instrument sheet, calibrator CMT-7364 0.9 μM celastrol RQ 1, CIPp control RQ 162.87",12.46
same,"RQ Max, caspase-9",CMT-7364 cells [8]; [10],2.21
same,"RQ Max, p-27",CMT-7364 cells [8]; [10],1.96
same,"RQ Max, β-actin",CMT-7364 cells [8]; [10],1.84
same,"RQ Min, caspase-9",CMT-7364 cells [8]; [10],0.45
same,"RQ Min, p-21",CMT-7364 cells [8]; [10],0
same,"RQ Min, p-27",CMT-7364 cells [8]; [10],0.51
same,"RQ Min, β-actin",CMT-7364 cells [8]; [10],0.54
same,"RQ, caspase-9",CMT-7364 cells [8]; [10],1
same,"RQ, p-21",CMT-7364 cells [8]; [10],1
same,"RQ, p-27",CMT-7364 cells [8]; [10],1
same,"RQ, β-actin",CMT-7364 cells [8]; [10],1
same,mRNA expression level of Caspase-3,CMT-7364 cells [8]; [11],significantly up-regulated
same,mRNA expression level of Caspase-9,CMT-7364 cells [8]; [11],significantly up-regulated
same,mRNA expression level of p21,CMT-7364 cells [8]; [11],up-regulated
same,mRNA expression level of p27,CMT-7364 cells [8]; [11],up-regulated
same,"RQ, caspase-3",CMT-7364 cells [8]; [12],0.26
same,"RQ, caspase-9",CMT-7364 cells [8]; [12],0.29
same,"RQ, p-21",CMT-7364 cells [8]; [12],0.53
same,"RQ, p-27",CMT-7364 cells [8]; [12],0.19
same,"RQ, p-27","CMT-7364 cells [8]; test 2, CMT-7364 cells, 0.9 μM, instrument sheet, this sample is the calibrator (ΔΔCt 0.00), CMT-7364 control RQ 1.47",1
same,"RQ, caspase-9","CMT-7364 cells [8]; test 2, CMT-7364 cells, 0.9 μM, instrument sheet, this sample is the calibrator (ΔΔCt 0.00), CMT-7364 control RQ 25.61",1
same,"RQ, p-21","CMT-7364 cells [8]; test 2, CMT-7364 cells, 0.9 μM, instrument sheet, this sample is the calibrator (ΔΔCt 0.00), CMT-7364 control RQ 51.05",1
same,IC50,MDCK cells; 24 h,1.81 µM
same,IC50,MDCK cells; 48 h,1.86 µM
same,proliferation,"MDCK cells; MDCK cells, concentration <1.2 μM",did not significantly inhibit

# Source: publication PMC8854749, “Celastrol Inhibits Canine Mammary Tumor Cells by Inducing Apoptosis via the Caspase Pathway” (Frontiers in Veterinary Science, 2022)
